Test results published in patent US6774235B2, “Trisubstituted 1,3,5-triazine derivatives” (Janssen Pharmaceutica N.V., priority 1998, dated 2004).

Assays:
HIV-1 (wildtype IIIB) = experiment: microbe, parasite or virus in culture; assay type: cell-based; conditions: Human immunodeficiency virus 1, MT4; dose achieving 50% protection of HIV-1 (IIIB) infected MT-4 cells, MTT, OD 540 nm
Protocol: (§1) A rapid, sensitive and automated assay procedure was used for the in vitro evaluation of anti-HIV agents. An HIV-1 (wildtype IIIB) transformed T4-cell line, MT-4, which was previously shown (Koyanagi et al., Int. J Cancer, 36, 445-451, 1985) to be highly susceptible to and permissive for HIV infection, served as the target cell line. Inhibition of the HIV-induced cytopathic effect was used as the end point. […] The percent protection achieved by the compound in HIV-infected cells was calculated by the following formula: [formula]
(§2) whereby (ODT)HIV is the optical density measured with a given concentration of the test compound in HIV-infected cells; (ODC)HIV is the optical density measured for the control untreated HIV-infected cells; (ODC)MOCK is the optical density measured for the control untreated mock-infected cells; all optical density values were determined at 540 nm. […] The ratio of CC50 to IC50 was defined as the selectivity index (SI).

[1] = Cytotoxicity in mock-infected MT-4 cells (MTT); conditions: human, mock-infected MT-4 cells
Protocol: as §1, §2

| IC50 (HIV-1 (wildtype IIIB)) | Structure (SMILES) | CC50 [1] |
| --- | --- | --- |
| 2 nM | Cc1cc(Br)cc(Cl)c1Oc1nc(N)nc(Nc2ccc(C#N)cc2)n1 [Compound 33, 4-[[4-amino-6-(4-bromo-2-chloro-6-methylphenoxy)-1,3,5-triazin-2-yl]amino]benzonitrile] | > 10000 nM |
| 3 nM | Cc1cc(Br)cc(Cl)c1Nc1nc(N)nc(Nc2ccc(C#N)cc2)n1 [Compound 63, 4-[[4-amino-6-[(4-bromo-2-chloro-6-methylphenyl)amino]-1,3,5-triazin-2-yl]amino]-benzonitrile] | 48000 nM |
| 1 nM | Cc1cc(C)c(Nc2nc(N)nc(Nc3ccc(C#N)cc3)n2)c(Cl)c1 [Compound 65, 4-[[4-amino-6-[(2-chloro-4,6-dimethylphenyl)amino]-1,3,5-triazin-2-yl]amino]-benzonitrile] | 48500 nM |
| 10 nM | N#Cc1ccc(Nc2nc(N)nc(Nc3c(Cl)cc(Cl)cc3C(F)(F)F)n2)cc1 [Compound 71, 4-[[4-amino-6-[[2,4-dichloro-6-(trifluoromethyl)phenyl]amino]-1,3,5-triazin-2-yl]-amino]benzonitrile] | 8200 nM |
| 3 nM | CC(C)c1cc(Br)c(Nc2nc(N)nc(Nc3ccc(C#N)cc3)n2)c(Br)c1 [Compound 77, 4-[[4-amino-6-[[2,6-dibromo-4-(1-methylethyl)phenyl]amino]-1,3,5-triazin-2-yl]-amino]benzonitrile] | 47000 nM |

Further lines, the molecule ahead of its results:

| Structure (SMILES) | IC50 (HIV-1 (wildtype IIIB)) | CC50 [1] |
| --- | --- | --- |
| CC(=O)c1cc(C)c(Oc2nc(N)nc(Nc3ccc(C#N)cc3)n2)c(C)c1 [Compound 35, 4-[[4-(4-acetyl-2,6-dimethylphenoxy)-6-amino-1,3,5-triazin-2-yl]amino]benzonitrile] | 1 nM | 32100 nM |
| N#Cc1ccc(Nc2nc(N)nc(Oc3c(Br)cc(Br)cc3Br)n2)cc1 [Compound 40, 4-[[4-amino-6-(2,4,6-tribromophenoxy)-1,3,5-triazin-2-yl]amino]benzonitrile] | 5 nM | > 10000 nM |
| Cc1cc([N+](=O)[O-])cc(C)c1Oc1nc(N)nc(Nc2ccc(C#N)cc2)n1 [Compound 41, 4-[[4-amino-6-(4-nitro-2,6-dimethylphenoxy)-1,3,5-triazin-2-yl]amino]benzonitrile] | 2 nM | 12200 nM |
| N#Cc1ccc(Nc2nc(N)nc(Sc3ccc(Cl)cc3Cl)n2)cc1 [Compound 54, 4-[[4-amino-6-[(2,4-dichlorophenyl)thio]-1,3,5-triazin-2-yl]amino]benzonitrile] | 4 nM | 57300 nM |
| N#Cc1ccc(Nc2nc(N)nc(Oc3cccc4[nH]ccc34)n2)cc1 [Compound 83] | 473 nM | 59600 nM |
| CC(=O)c1cc(C)c2c(c1Oc1nc(N)nc(Nc3ccc(C#N)cc3)n1)CCC2 [Compound 84, 4-[[4-[(5-acetyl-2,3-dihydro-7-methyl-1H-inden-4-yl)oxy]-6-amino-1,3,5-triazin-2-yl]amino]benzonitrile] | 1 nM | 54100 nM |
